# Data published in US6471958B2, “Non-contracting tissue equivalent” (University of North Texas Health Science Center, priority 1998, dated 2002).
# Where two headings read alike, the source gives them in different places.
# Key:
# [1] = tested on: human skin equivalent product; conditions: 90 minutes/day for 10 days
# Description: (§1) The cells, DEs, or tissue equivalent products, contained in TC plates, were transferred into the treatment chamber, the lids were removed, and the TC plates covered with sterile gauze. The treatment chamber was sealed, the oxygen (100%) was blown through slowly to expel all the air (2 min.), and the chamber brought up to the appropriate pressure over a period of five minutes. The treatment pressure was maintained for 90 minutes. At the conclusion, decompression was carried out slowly over a five-minute period, and the treated cultures returned to the CO2 incubator. The treatments were repeated for 2, 5, or 10 consecutive days, and a normal medium change schedule was maintained.
# [2] = tested on: normal human keratinocyte monolayers; conditions: periodic HBO treatment
# Description: as §1
# [3] = tested on: normal human dermal fibroblasts monolayers; conditions: for cell proliferation (cell numbers): 90 min./day for ten days
# Description: as §1
# [4] = 90 minutes, DMEM, KBM
# Description: A method similar to that described by Rafi et al., Am. J. Med. Genetics 61:299-303 […] was used to measure the partial pressure of oxygen (pO2) dissolved in the culture medium bathing the cells. To each well of a multiwell tissue culture (TC) plate was added the appropriate culture medium to a depth of 2 mm. The TC plates were then placed in the treatment chamber, the chamber was flushed out with oxygen for five minutes and then pressurized over an additional five minute period. The pressure was maintained for 90 minutes after which time period the treatment chamber was decompressed over a period of five minutes. The TC plates were then removed from the chamber and the pO2 measurement taken within two minutes using a polarographic oxygen electrode (Diamond General Development Corporation, Ann Arbor, Mich.). Dissolution of oxygen at four different pressures was measured in three different media.
# [5] = tested on: HUSE Product; conditions: for OUTCOME (neutral red viability): HUSE Product, 90 min/day for 10 days
# Description: Dermal equivalents, cast in 12 well tissue culture plates, were coated with collagen VII (Collaborative Research; 12 mg collagen/cm^2). Early passage keratinocytes (1.8×10^5cells/cm^2), suspended in KGM (2 mls) were then plated onto DE. The medium was changed after 24 hours, and thereafter at 48 hour intervals. Once a confluent monolayer was formed, the DE were transferred to a wire mesh grids, elevated to the air-liquid interface, and the media was changed to modified KGM containing 1.8 mM CaCl2; once lifted (“lift date” was “Day 0”) the system was considered to be a “developing HUSE product”. The “epidermis” remained at the air-liquid interface and differentiated for the duration of the experiment, the media being changed every 3 days. The HUSE product was considered mature after 14 days of differentiation.
# (§2) The cells, DEs, or tissue equivalent products, contained in TC plates, were transferred into the treatment chamber, the lids were removed, and the TC plates covered with sterile gauze. […] The treatment pressure was maintained for 90 minutes. At the conclusion, decompression was carried out slowly over a five-minute period, and the treated cultures returned to the CO2 incubator. The treatments were repeated for 2, 5, or 10 consecutive days, and a normal medium change schedule was maintained.
# (§3) The cells and equivalents were incubated in 1 ml of neutral red solution (1 mg/ml in appropriate media) for 4 hours at 37° C. The effects on the cells (fibroblasts/keratinocytes) were evaluated microscopically and photographically recorded. The entry of neutral red into the cells signified that they were viable.
# [6] = tested on: normal human skin fibroblasts
# Description: Dermal fibroblasts were obtained as outgrowths from explanted dermal tissue, after incubation at 37° C. 5% CO2 97% humidity) in DMEM containing 10% FBS. The cells were harvested with 0.05% trypsin, 0.02% EDTA, and passaged in their respective media or used for construction of dermal and skin equivalents. For experimental treatments the cells were plated into 25 cm tissue culture flasks (T-25), 6 well tissue culture (TC) plates (9.6 cm^2/well), or 4 well TC plates (2 cm^2/well).
# as §2, §3
# [7] = tested on: normal human keratinocytes; conditions: for OUTCOME (neutral red viability): Keratinocytes, Continuous 12 hrs or 90 min/day for 10 days
# Description: Human skin pieces (5 cm squares) were incubated at 4° C. in a solution of 20U/ml dispase (Collaborative Research; 5 mg collagen/cm2) in KGM (Keratinocyte Growth Medium, Clonetics Corp.), for 48 hours. The epidermis was separated from the dermis and dispersed in a solution containing 0.025% trypsin and 0.02% EDTA, by incubation at 37° C. and vigorous pipetting, to produce a single cell suspension. The resulting keratinocytes were then plated into tissue culture flasks coated with collagen VII, and cultured in KGM, a serum free defined medium at 37° C. (5% CO2, 97% humidity). […] The cells were harvested with 0.05% trypsin, 0.02% EDTA, and passaged in their respective media or used for construction of dermal and skin equivalents. For experimental treatments the cells were plated into 25 cm tissue culture flasks (T-25), 6 well tissue culture (TC) plates (9.6 cm^2/well), or 4 well TC plates (2 cm^2/well).
# as §2, §3
# [8] = tested on: normal human dermal fibroblasts
# Description: Collagen production by near confluent monolayer of dermal fibroblasts was determined by measuring the incorporation of tritiated proline [3H-proline] into bacterial collagenase-sensitive protein [Postlethwaite et al., Proc. Nat. Acad. Sci. (USA) 75:871-875 (1978)] using an extensively modified method of Peterkofsky and Diegelmann, Developmental Biology 28:443-453 (1972). The wells of a six well TC plate (Falcon 3008) were seeded with 5×10^5 fibroblasts and were cultured in DMEM containing 5% FBS for 72 hr at 37° C. (humidified 5% CO2 incubator). The medium was then replaced with serum free DMEM lacking in nonessential amino acids (500 ml), and containing 5 μC L-proline[2,3-3H] (20 Ci/mM, NEN, Boston, Mass.), and the hyperbaric treatments initiated. After 48 and 120 hours, two aliquots (200 ml) of culture supernatant were removed from each well. One aliquot was used to quantitate total protein production as follows: supernatant (200 ml) was added to 0.2 M Tris/0.3 M CaCl2 buffer (pH 7.5, 70 ml), FBS (25 ml),N-ethylmaleimide (NEM, 30 ml), and a 0.75% solution of tannic acid (TA) in 50% trichloroacetic acid 9TCA) (75 ml). […] The filters, placed in scintillation vials containing 5 ml Aquasol (New England Nuclear), were chilled for 4 hr, and counted in a liquid scintillation counter.
# The second aliquot of was used to quantitate the noncollagen protein as follows: supernatant (200 ml) was added to 0.2 M Tris/0.3 M CaCl2 buffer (pH 7.5, 50 ml), NEM (30 ml) and bacterial collagenase (20 ml) (Worthington Biochemical Corp., Freehold, N.J.), purified just before use by gel filtration on Sephadex G-200 to remove proteinases. […] The precipitate was collected on glass fiber filters, and the radioactivity was measured by scintillation counting.
# De novo synthesized collagen by each fibroblast culture was determined by substracting the noncollagen protein from the total proteins synthesized. Samples were assaved in quadruplicate or triplicate and the data are expressed as mean epm (+SEM) and/or percent of collagen produced relative to control cultures. […]
# [9] = tested on: Fibroblasts in Dermal Eq. Submerged; conditions: 90 min/day for 10 days
# Description: (§4) Dermal equivalents were constructed at 4° C. by mixing 8 parts collagen (Type I acid solubilized, ICN Cellagen®; 3 mg/ml), 1 part of 10×Ham's F-12 medium, 1 part buffer (200 mM HEPES, 25 mM Na2CO3 and 50 mMN NaOH) and inoculating with dermal fibroblasts (1×10^5 cells/ml at 4° C.). For experimental treatments DE were cast in 4 or 12 well tissue culture plates and were maintained at 37° C. in Ham's F-12 Medium containing 5% FBS. Fibroblasts regained their normal morphology within 48 hours, after which DE were maintained in modified Ham's F-12 Medium, changing the media every 48 hours.
# as §2, §3
# [10] = tested on: Fibroblasts in Dermal Eq. on Grids; conditions: 90 min/day for 10 days
# Description: as §4, §2, §3
smiles,measurement,setting,value
"O=O [100% O2, oxygen]",cornification of the epidermal layer,[1],particularly stimulated
same,epidermal thickness,"[1]; 1 and 2 atm of 100% oxygen, vs untreated control",progressive increase in epidermal thickness
same,cell number,[2]; 1 atm.,consistently indistinguishable from the controls
same,cell number,[2]; 2 atm.,not as mitotic as the latter
same,cell number,[2]; 2.5 atm.,not as mitotic as the latter
same,cell number,[2]; 3 atm.,"a constant number of cells, well below the numbers obtained in other treatments"
same,cell proliferation (cell numbers),[3]; 1 atm. Donor,Stimulation of cell proliferation
same,cell proliferation (cell numbers),[3]; 2.5 atm. Donor,Stimulation of cell proliferation
same,cell proliferation (cell numbers),"[3]; 3 atm, donor",consistently non-stimulating and perhaps marginally anti-mitotic
same,effect on fibroblast mitosis,[3]; oxygen pressures above about three atmospheres,antimitotic
same,MEASURED pO2 (Mean of three readings),"[4]; applied O2 pressure 1 atm. - 760 mm Hg, KGM",316 mm Hg
same,MEASURED pO2 (Mean of three readings),"[4]; applied O2 pressure 2 atm. - 1520 mm Hg, KGM",800 mm Hg
same,MEASURED pO2 (Mean of three readings),"[4]; applied O2 pressure 2.5 atm. - 1900 mm Hg, KGH",941 mm Hg
same,MEASURED pO2 (Mean of three readings),"[4]; applied O2 pressure 3 atm. - 2280 mm Hg, KGM",1215 mm Hg
same,OUTCOME (neutral red viability),[5]; 760 mm Hg,Non-Toxic
same,OUTCOME (neutral red viability),[5]; 1520 mm Hg,Non-Toxic
same,OUTCOME (neutral red viability),[5]; 2280 mm Hg,Non-Toxic
same,adverse effect on developing HUSE products,[5]; up to 3 atmospheres,not adversely affected
same,OUTCOME (neutral red viability),"[6]; 3 hrs/day for 5 days, 320 mm Hg",Non-Toxic
same,OUTCOME (neutral red viability),"[6]; 3 hrs/day for 5 days, 480 mm Hg",Non-Toxic
same,OUTCOME (neutral red viability),"[6]; 3 hrs/day for 5 days, 760 mm Hg",Non-Toxic
same,OUTCOME (neutral red viability),"[6]; Continuous 12 hrs, 760 mm Hg",Non-Toxic
same,OUTCOME (neutral red viability),"[6]; Continuous 12 hrs, 1520 mm Hg",Some Toxicity
same,OUTCOME (neutral red viability),"[6]; Continuous 12 hrs, 1520 mm Hg, listed as 100% oxygen",some toxicity
same,OUTCOME (neutral red viability),"[6]; Continuous 12 hrs, 2280 mm Hg",Some Toxicity
same,OUTCOME (neutral red viability),"[6]; Continuous 12 hrs, 2280 mm Hg, listed as 100% oxygen",some toxicity
same,OUTCOME (neutral red viability),[7]; 760 mm Hg,Non-Toxic
same,OUTCOME (neutral red viability),[7]; 1520 mm Hg,Non-Toxic
same,OUTCOME (neutral red viability),[7]; 2280 mm Hg,Non-Toxic
same,toxicity,"[7]; keratinocyte monolayer cultures, any pressure",No toxicity
same,collagen synthesis,"[8]; 1 atmosphere, after two days of treatment",elevated
same,levels of collagen synthesis,"[8]; five days vs two days of treatment, all pressure levels",higher after five days of treatment than after two days
same,collagen synthesis,[8]; with increased HBO,inhibition of collagen synthesis
same,OUTCOME (neutral red viability),[9]; 760 mm Hg,Non-Toxic
same,OUTCOME (neutral red viability),[9]; 1520 mm Hg,Non-Toxic
same,OUTCOME (neutral red viability),[9]; 2280 mm Hg,Non-Toxic
same,OUTCOME (neutral red viability),[10]; 760 mm Hg,Non-Toxic
same,OUTCOME (neutral red viability),[10]; 1520 mm Hg,Some Toxicity
same,OUTCOME (neutral red viability),[10]; 2280 mm Hg,Some Toxicity
